Assay: Inhibition of VEGFR2 in HUVEC assessed as inhibition of VEGF-induced tube formation incubated for 8 hrs by inverted microscopic method

- IC50: 40.4 µM
Structure (SMILES): C/C=C(\C)C(=O)O[C@@H]1C2=C(C)C(=O)N[C@]2(O)C[C@@]2(C)O[C@@H]2CC[C@@]2(C)O[C@H]12
